# Experimental data published in the supplement of paper PMC10307832.
# Key:
# Assay in all cases: relative viability (nuclei count vs DMSO), 5 days (fraction); higher = more cells survive
# [1] = compound: Nc1ccn([C@@H]2O[C@H](CO)[C@@H](O)C2(F)F)c(=O)n1 [Gemcitabine] + CCNC(=O)c1noc(-c2cc(C(C)C)c(O)cc2O)c1-c1ccc(CN2CCOCC2)cc1 [Luminespib] (partner 0.01 µM)
# How it was run: (§1)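 Values are medians from duplicate plates. Each reflects relative viability, defined as the nuclei count of treated wells over that of vehicle wells. Lung cancer cell lines in 1536-well plates were pin-tool dosed one day after seeding with one drug alone or with a fixed anchor-drug dose plus five library-drug doses (not always all listed) in √10 steps, then fixed, stained and imaged at 4× after 5 days.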
# [2] = compound: Nc1ccn([C@@H]2O[C@H](CO)[C@@H](O)C2(F)F)c(=O)n1 [Gemcitabine] + C[C@]1(O)C[C@@H](c2nc(-c3ccc4ccc(-c5ccccc5)nc4c3)c3c(N)nccn32)C1 [Linsitinib] (partner 1 µM)
# How it was run: as §1
# [3] = compound: Nc1ccn([C@@H]2O[C@H](CO)[C@@H](O)C2(F)F)c(=O)n1 [Gemcitabine] + COc1cccc2cc(-c3nc([C@H]4CC[C@H](C(=O)O)CC4)n4ncnc(N)c34)[nH]c12 [OSI-027] (partner 0.5 µM)
# How it was run: as §1
# [4] = compound: Nc1ccn([C@@H]2O[C@H](CO)[C@@H](O)C2(F)F)c(=O)n1 [Gemcitabine] + CS(=O)(=O)CCNCc1ccc(-c2ccc3ncnc(Nc4ccc(OCc5cccc(F)c5)c(Cl)c4)c3c2)o1 [Lapatinib] (partner 2 µM)
# How it was run: as §1
Cell Line,relative viability ([1]; first compound 0.001 µM),relative viability ([1]; first compound 0.003162 µM),relative viability ([1]; first compound 0.01 µM),relative viability ([1]; first compound 0.03162 µM),relative viability ([1]; first compound 0.1 µM),relative viability ([2]; first compound 0.001 µM),relative viability ([2]; first compound 0.003162 µM),relative viability ([2]; first compound 0.01 µM),relative viability ([2]; first compound 0.03162 µM),relative viability ([2]; first compound 0.1 µM),relative viability ([3]; first compound 0.001 µM),relative viability ([3]; first compound 0.003162 µM),relative viability ([3]; first compound 0.01 µM),relative viability ([3]; first compound 0.03162 µM),relative viability ([3]; first compound 0.1 µM),relative viability ([4]; first compound 0.001 µM),relative viability ([4]; first compound 0.003162 µM),relative viability ([4]; first compound 0.01 µM),relative viability ([4]; first compound 0.03162 µM),relative viability ([4]; first compound 0.1 µM)
NCI-H2087,0.178,0.159,0.14,0.147,0.138,0.93,0.808,0.579,0.217,0.183,0.532,0.229,0.112,0.0781,0.0817,0.9,0.814,0.396,0.17,0.161
NCI-H2228,0.131,0.0993,0.14,0.149,0.124,0.569,0.666,0.186,0.217,0.112,0.614,0.24,0.129,0.122,0.0908,1.06,0.827,0.207,0.109,0.148
NCI-H727,0.312,0.288,0.352,0.207,0.342,0.325,0.277,0.236,0.219,0.213,0.586,0.409,0.353,0.327,0.297,0.843,0.561,0.262,0.239,0.281
NCI-H650,0.753,0.522,0.185,0.16,0.155,0.634,0.282,0.21,0.153,0.147,0.46,0.24,0.194,0.153,0.169,0.606,0.269,0.299,0.149,0.161
NCI-H520,0.22,0.231,0.224,0.201,0.252,1.13,0.917,0.482,0.186,0.131,0.306,0.296,0.254,0.189,0.156,0.901,1.11,0.474,0.186,0.121
EBC-1,,,,,,0.777,0.369,0.142,0.0966,0.115,,,,,,0.15,0.187,0.176,0.181,0.167
NCI-H661,0.905,0.934,0.694,0.274,0.209,0.534,0.406,0.245,0.198,0.15,0.767,0.597,0.374,0.204,0.208,0.618,0.47,0.287,0.216,0.171
NCI-H1299,,,,,,0.987,1.01,0.981,1,0.972,,,,,,0.941,1.01,0.962,0.938,0.921
LK-2,0.186,0.245,0.173,0.178,0.164,0.6,0.485,0.433,0.196,0.156,0.217,0.18,0.167,0.163,0.155,0.977,0.692,0.817,0.329,0.249
NCI-H1993,0.61,0.85,0.579,0.508,0.45,0.689,0.723,0.622,0.599,0.579,0.539,0.534,0.541,0.503,0.518,0.77,0.769,0.853,0.546,0.495
NCI-H2170,0.564,0.633,0.575,0.169,0.151,,,,,,0.714,0.662,0.632,0.292,0.136,0.282,0.271,0.244,0.197,0.185
SW 900,0.147,0.187,0.164,0.161,0.148,,,,,,0.526,0.241,0.13,0.0871,0.0793,,,,,
LCLC-103H,0.956,1.01,0.845,0.314,0.183,1.02,1.21,0.998,0.76,0.509,0.442,0.449,0.418,0.288,0.296,,,,,
NCI-H441,0.343,0.332,0.198,0.189,0.177,0.513,0.339,0.102,0.11,0.128,0.583,0.28,0.247,0.165,0.201,,,,,
NCI-H1650,0.197,0.185,0.177,0.197,0.177,,,,,,0.501,0.184,0.114,0.137,0.134,0.669,0.706,0.406,0.179,0.17
NCI-H522,1.14,1.08,0.727,0.392,0.368,,,,,,0.653,0.463,0.384,1.12,0.393,,,,,
IA-LM,,,,,,0.768,0.461,0.324,0.149,0.0467,,,,,,,0.853,0.353,0.124,0.0354
HCC-366,,,,,,0.722,0.477,0.138,0.0302,0.0117,0.899,1.23,0.478,0.0351,0.0249,0.954,1.19,0.546,0.0287,0.0142
NCI-H2342,0.591,0.61,0.543,0.376,0.331,,,,,,0.652,0.629,0.563,0.392,0.381,,,,,
HCC-78,,,,,,0.532,0.347,0.199,0.189,0.154,0.325,0.312,0.263,0.211,0.229,0.695,0.485,0.146,0.272,0.168
